In patent publication US10182981B2, “Method of regulating a skin condition” (priority 2015, dated 2019):

System: IL-18
Assay: Evaluation of skin sensitization potential (IL-18 production in HEK)
Format: cell-based, human
Settings: HEK lysate, 16 h
Excerpt: It is possible for a material to not be cytotoxic, and yet be unsafe due to provoking an allergic reaction upon skin contact. Typically, initial exposure to an allergen sensitizes the immune system, and following exposures cause an allergic response. Recent progress in understanding the mechanisms of skin sensitization identified interleukin-18 (IL-18) production in normal human epidermal keratinocytes (HEK) as a useful biomarker for skin contact sensitization (Corsini, et al., “Use of IL-18 Production In a Human Keratinocyte Cell Line to Discriminate Contact Sensitizers from Irritants and Low Molecular Weight Respiratory Allergens.” Toxicol In Vitro. 2009 August; 23(5):789-96; Teunis, et al., “Transfer of a Two-tiered Keratinocyte Assay: IL-18 Production by NCTC2544 to Determine the Skin Sensitizing Capacity and Epidermal Equivalent Assay to Determine Sensitizer Potency.” Toxicol In Vitro. 2013 April; 27(3):1135-50). […] Thus, IL-18 production in HEK was evaluated to determine sensitization potential.
Normal human adult epidermal keratinocytes (HEK) were cultured as described above for the cytoxicity evaluation. […] The cell lysates were collected, and IL-18 was quantified using Human IL-18 ELISA Kit (Catalog #7620, produced by MBL International Co., Woburn, Mass., USA). […] Fold changes of IL-18 levels between test articles and respective vehicle controls were calculated and compared to pPD. […]

Nc1ccc(N)cc1 [benchmark sensitizer, para-phenylenediamine]
IL18 Maximum fold change vs vehicle control: 7.8 fold)
IL18 Maximum fold change vs vehicle control (listed as para-phenylenediamine (pPD)): significantly induced IL-18
